In patent US10568949B2, “Method of eliciting an anti-tumor immune response with controlled delivery of TLR agonists in porous polymerlc devices” (President and Fellows of Harvard College, priority 2008, dated 2020):

Legend:
dendritic cells [1] = assay: Example 7: DC recruitment and activation in matrices with GM-CSF and TLR agonists (FACS, day 7); type: in vivo, C57BL/6J mice; settings: with GM-CSF
Source text: The cell suspensions were then poured through a 40 μm cell strainer to isolate cells from scaffold particles and the cells were pelleted and washed with cold PBS and counted using a Z2 coulter counter (Beckman Coulter). To assess, DC infiltration and activation, subsets of the total cell population isolated from PLG matrices were then stained with primary antibodies (BD Pharmingen, San Diego, Calif.) conjugated to fluorescent markers to allow for analysis by flow cytometry. APC-conjugated CD11c (dendritic cell marker), FITC-conjugated MHCII and PE-conjugated CD86 (B7, costimulatory molecule) stains were conducted for DC recruitment and activation analysis. To further delineate the presence of specific DC subsets, cells were also stained with APC-conjugated CD11c and PE-conjugated PDCA-1 (plasmacytoid DC marker) or APC-conjugated CD11c and PE-conjugated CD8 (CD8 DCs). To assess T-cell infiltration PE-Cy7 conjugated CD3 stains were performed in conjunction with APC-conjugated CD8a (CD8 T cells), and PE-conjugated FoxP3 (Treg) and analyzed with flow cytometry. Cells were gated according to single positive FITC, APC and PE stainings and using isotype controls. The percentage of cells staining positive for each surface antigen was recorded. To examine the ability of PLG matrices to recruit and activate dendritic cells in vivo, matrices delivering GM-CSF in combination with danger signals were implanted subcutaneously into the backs of C57BL/6J mice. The magnitude of DC infiltration and activation into the matrices was determined by FACS analysis of cell populations isolated from the polymeric material after 7 days.

B16-F10 melanoma cells [2] = assay: Example 7: prophylactic vaccination, B16-F10 melanoma; type: in vivo, C57BL/6J mice; parameters: concentration or dose not given beside the values; settings: B16-F10 tumor lysates and GM-CSF, with or without TLR agonist; challenge at day 14
IL-12p70 = assay: Example 7: cytokine concentrations at implant site; type: in vivo, C57BL/6J mice; settings: with GM-CSF
Method: To determine in vivo IL-12p70 concentration at the matrix implant site, adjacent tissue was excised and digested with tissue protein extraction reagent. After centrifugation, the concentrations of IL-12, in the supernatant were then analyzed with ELISA (R&D systems), according to the manufacturer's instructions.

B16-F10 tumors = assay: Example 7: tumor infiltrating leukocyte (TIL) characterization; parameters: species or system C57BL/6J mice; settings: mouse, in vivo
Method: On the indicated days, B16-F10 tumors were removed from mice, and digested in 1 mg/mL collagenase II (250 U/ml) (Worthington, Lakewood, N.J.) and 0.1 mg/mL DNase for 1 hour at 37° C. Dissociated cells were filtered through a 40-μm filter, and directly stained with antibodies for phenotype characterization by fluorescence-activated cell sorting (FACS) analysis. APC-anti-CD8 and PE-Cy7-anti CD3 were used to identify T cells isolated from the B16F10 tumors. These TILs were also costained with FITC-anti-IFNγ, and PE-anti-CD107a. All antibodies were obtained from eBioscience, San Diego, Calif.

B16-F10 melanoma cells [3] = assay: Example 7: therapeutic vaccination of established B16-F10 melanoma
Method: To assess PLG vaccine efficacy in the therapeutic setting, C57/BL6J mice were challenged with a subcutaneous injection of 5×10^5 B16-F10 melanoma cells (ATCC, Manassas, N.J.) in the back of the neck. At day 9 after tumor challenge PLG vaccines loaded with 3000 ng GM-CSF in combination with 100 μg of CpG-ODN, MPLA or P(I:C), and tumor lysates were implanted subcutaneously into the lower left flank of C57BL/6J mice. A subset of mice were vaccinated again 10 days after the initial vaccination (Days 19 and 23).
Mice challenged with 5×10^5B16-F10 melanoma cells were subsequently vaccinated at days 9 and 19, after tumors were established.

[4] = system: TRP-2-specific cytotoxic T lymphocytes; assay: Example 8: TRP-2-specific cytotoxic T lymphocytes in spleens (Day 10); parameters: species or system C57BL/6J mice; settings: mouse, in vivo
IL-12p70 and IFN-γ = settings: tumor lysate and CpG-ODN
Method: To determine the in vivo IL-12p70 and IFN-γ concentration at the matrix implant site, adjacent tissue was excised and digested with tissue protein extraction reagent at Day 10 after implantation (Pierce). After centrifugation, the concentrations of IL-12 and IFN-γ, in the supernatant were then analyzed with ELISA (R&D systems), according to the manufacturer's instructions. To determine the generation of TRP-2-specific cytotoxic T lymphocytes, single cell suspensions were prepared at Day 10 from the spleens of mice immunized with PLG vaccines. These cells were initially stained with PE-H-2Kb/TRP2 pentamers (Sigma Aldrich), and subsequently stained with FITC-anti-CD8 and PE-CY7 CD3 mAb (mAb (BD Pharmingen, San Diego) before being analyzed using flow cytometry.

dendritic cells [5] = assay: Example 8: DC recruitment and activation in cytokine loaded PLG matrices (FACS, day 7); type: in vivo, C57BL/6J mice; settings: for DC recruitment relative to blank PLG matrices: day 7
Method: To analyze DC recruitment by FACS analysis, scaffolds were excised and the ingrown tissue was digested into single cell suspensions using a collagenase solution (Worthingtion, 250 U/ml) that was agitated at 37° C. for 45 minutes. The cell suspensions were then poured through a 40 μm cell strainer to isolate cells from scaffold particles and the cells were pelleted and washed with cold PBS and counted using a Z2 coulter counter (Beckman Coulter). To assess, DC infiltration and activation, subsets of the total cell population isolated from PLG matrices were then stained with primary antibodies (BD Pharmingen, San Diego, Calif.) conjugated to fluorescent markers to allow for analysis by flow cytometry. APC-conjugated CD11c (dendritic cell marker), FITC-conjugated MHCII and PE-conjugated CD86 (B7, costimulatory molecule) stains were conducted for DC recruitment and activation analysis. To delineate the presence of the plasmacytoid DC subset, cells were also stained with APC-conjugated CD11c and PE-conjugated PDCA-1 (plasmacytoid DC marker). Cells were gated according to single positive FITC, APC and PE stainings using isotype controls. The percentage of cells staining positive for each surface antigen was recorded.

B16-F10 melanoma cells [6] = assay: Example 8: therapeutic vaccination, B16-F10 melanoma; type: in vivo, C57BL/6J mice; settings: vaccinated three days after tumor challenge
Method: PLG scaffolds containing B16-F10 melanoma tumor lysates, 100 μg CpG-ODN in combination with 3 μg GM-CSF, Flt3L or CCL20 were implanted subcutaneously into the lower left flank of C57BL/6J mice to act as cancer vaccines. To assess PLG vaccine efficacy in the therapeutic setting, C57/BL6J mice were challenged with a subcutaneous injection of 5×10^5 B16-F10 melanoma cells (ATCC, Manassas, N.J.) in the back of the neck, and 3 days after tumor challenge PLG vaccines were implanted subcutaneously into the lower left flank. Animals were monitored for the onset of tumor growth (approximately 1 mm^3) and sacrificed for humane reasons when tumors grew to 20-25 mm (longest diameter).

[7] = In vitro release / retention of GM-CSF, cytokines and TLR agonists from PLG scaffolds; type: physicochemical; settings: for incorporated cytokine released from scaffolds: by day 4, in vitro; for daily release of protein: over the next 23 days after day 4
Method: To determine the incorporation efficiency of CpG-ODN incorporation, PLG scaffolds were prepared with 50 ug of CpG-ODN and digested in 1 ml of chloroform (Sigma Aldrich, and washed with 2 mls of aqueous buffer. The aqueous phase was isolated and the amount of CpG-ODN incorporated was determined by absorbance readings (260/280 and 260/230 ratios calculated at 0.2 mm pathlength) using a Nanodrop instrument, ND1000 (Nanodrop technologies, Wilmington, Del.). Similarly, to determine CpG-ODN release kinetics CpG-ODN loaded scaffolds were placed in 1 ml of Phosphate Buffer Solution (PBS) in an incubator (37° C.). At various timepoints, the PBS release media was collected and replaced with fresh media. The total amount of CpG-ODN incorporated into PLG scaffolds and released into PBS over time was analyzed and recorded.

[8] = system: bone marrow derived dendritic cells; assay: Example 8: transwell chemotaxis and chemokinesis of bone marrow derived DCs; type: cell-based, C57BL/6 mice; settings: 12 h; for DC chemotaxis, migration higher than control condition: 500 ng/ml in bottom wells; for DC chemokinesis, increase in number of migrated cells: homogenous cytokine 500 ng/ml
Method: Primary bone-marrow-derived dendritic cells (BMDCs) were flushed from the femurs of C57BL/6 mice and cultured in 100-mm bacteriological petri dishes (Falcon number 1029/Becton Dickinson). Cell culture medium RPMI-1640 (R10) (Sigma) was supplemented with 1% Penicillin-Streptomycin (Invitrogen), 2 mM 1-Glutamine (Invitrogen), 50 μM 2-mercaptoethanol (Sigma) and 10% heat-inactivated fetal bovine serum (FBS, Invitrogen). At day 0, bone marrow leukocytes were seeded at 2×10^6 cells per 100-mm dish in 10 ml R10 medium containing 20 ng/nil granulocyte-macrophage colony-stimulating factor (GM-CSF) (Peprotech). At day 3, another 10 ml R10 medium containing 20 ng/mL GM-CSF was added. to the plates. At days 6 and 8, half of the culture supernatant was collected and centrifuged, the cell pellet was resuspended in 10 ml fresh R10 containing 20 ng/mL GM-CSF, and placed back into the original plate. The non-adherent cell population in the culture supernatant was used between days 8 and 12 for all the experiments.
Transwell migration studies were performed by plating bone marrow derived dendritic cells in the top well of 6.5 mm transwell dishes (Costar, Cambridge, Mass.) with a pore size of 5 μm. The chemotactic effects of GM-CSF, FL (Flt3), and CCL20 on the migration of BMDCs was assessed by placing 500 ng/ml of recombinant murine GM-CSF, FL or CCL20 (Peprotech, Rocky Hill, N.J.) in the bottom wells and 3×10^5 DCs in the top wells. For chemokinesis studies, the concentration of cytokine in each compartment was equal at 500 ng/ml and 3×10^5 DCs were added to the top wells. The number of cells that migrated from the top well to the bottom well through the porous membrane was counted at the end of 12 h to quantify migration. Cells that had migrated to the bottom well were collected by treatment with 0.25% trypsin-0.03% ethylenediaminetetraacetic acid (EDTA, Invitrogen) and counted with a Z2 coulter counter (Beckman Coulter, Inc).

## monophosphoryl lipid A [MPLA]
Dendritic cells [1]
  CD8(+) DCs at implant site, higher than controls: approximately 5 fold
  CD11c(+) cells positive for MHCII(+) and CD86(+), of total cells recruited: ~19%
  enhancement of total number of recruited DCs compared to GM-CSF delivery alone: 1.9 fold
  increase in total number of activated DCs relative to control matrices: approximately 15 fold
B16-F10 melanoma cells [2]
  survival rate: 80%
IL-12p70
  IL-12 concentration lower than CpG-ODN and P(I:C): 2 fold
  effect on IFN-α concentration at vaccine site: no effect
  higher levels of TNF-α: 4 fold
B16-F10 tumors
  increase in IFNγ(+), CD107a(+) TILs in comparison to controls: ~1.4 fold
B16-F10 melanoma cells [3]; mouse, in vivo
  complete tumor regression, fraction of vaccinated animals: did not cause tumors to completely regress
B16-F10 melanoma cells [3]; vaccinated at days 9 and 19
  increase in mean survival time over controls: ~1.5 fold

## polyinosinic:polycytidylic acid [P(I:C)]
Dendritic cells [1]
  CD8(+) DCs at implant site, higher than controls: approximately 5 fold
  CD11c(+) cells positive for MHCII(+) and CD86(+), of total cells recruited: ~28%
  enhancement of total number of recruited DCs compared to GM-CSF delivery alone: 2.2 fold
  increase in total number of activated DCs relative to control matrices: ~20 fold
B16-F10 melanoma cells [2]
  survival rate: 70%
IL-12p70
  effect on IFN-α concentration at vaccine site: elevated levels
B16-F10 tumors
  increase in IFNγ(+), CD107a(+) TILs in comparison to controls: ~3.1 fold
B16-F10 melanoma cells [3]; mouse, in vivo
  complete tumor regression, fraction of vaccinated animals: over a third
  size of tumors that completely regressed / were eradicated: 35 mm^2
B16-F10 melanoma cells [3]; vaccinated at days 9 and 19
  long term survival of mice: 33%

B1: Fms-related tyrosine kinase 3 ligand (protein, UniProt P49772 27-232, looked up)
Fms-related tyrosine kinase 3 …: GTPDCYFSHSPISSNFKVKFRELTDHLLKDYPVTVAVNLQDEKHCKALWSLFLAQRWIEQLKTVAGSKMQTLLEDVNTEIHFVTSCTFQPLPECLRFVQTNISHLLKDTCTQLLALKPCIGKACQNFSRCLEVQCQPDSSTLLPPRSPIALEATELPEPRPRQLLLLLLLLLPLTLVLLAAAWGLRWQRARRRGELHPGVPLPSHP
notes: recombinant murine cytokine (Peprotech) released from PLG matrices
[4]
  Trp2 specific CTLs in spleens, higher than control vaccines: approximately 5 fold
IL-12p70 and IFN-γ
  increase in local concentration of IFN-γ over control scaffolds: 13 fold
  increase in local concentration of IL-12 over control scaffolds: 8 fold
Dendritic cells [5]
  DC recruitment relative to blank PLG matrices: 2.5 fold
Dendritic cells [5]; in combination with CpG-ODN
  pDCs of total cells resident in scaffolds: approximately 22%
  resident CD11c(+)PDCA-1(+) pDCs: over 160,000
B16-F10 melanoma cells [6]
  long-term survival rate: 75%
[7]
  incorporated cytokine released from scaffolds: ~36%
  daily release of protein: approximately 0.9%
[8]
  DC chemotaxis, migration higher than control condition: no effect
  DC chemokinesis, increase in number of migrated cells: no effect

B2: CCL20 (protein, UniProt O89093 28-97, looked up)
C-C motif chemokine 20: ASNYDCCLSYIQTPLPSRAIVGFTRQMADEACDINAIIFHTKKRKSVCADPKQNWVKRAVNLLSLRVKKM
notes: as for B1
IL-12p70 and IFN-γ
  increase in local concentration of IFN-γ over control scaffolds: no effect
  increase in local concentration of IL-12 over control scaffolds: 2 fold
Dendritic cells [5]
  DC recruitment relative to blank PLG matrices: 2.5 fold
Dendritic cells [5]; in combination with CpG-ODN
  resident CD11c(+)PDCA-1(+) pDCs: approximately 110,000
B16-F10 melanoma cells [6]
  long-term survival rate: 62%
[7]
  incorporated cytokine released from scaffolds: ~26%
  daily release of protein: approximately 0.9%
[8]
  DC chemotaxis, migration higher than control condition: no effect
  DC chemokinesis, increase in number of migrated cells: no effect
